# Assays:
# HT1080 tumour cells = test: Invasion of HT1080 tumour cells through Matrigel (cell invasion test); type: cell-based, human
# Description: The effect of the compounds of formula (I), inhibitors of heparanases, was tested in vitro on the invasion of HT1080 tumour cells.
# The cells derived from human fibrosarcomas, HT1080 (ATCC CCL-121) are cultured in a DMEM medium (Ref.: GIBCO 11960-044) containing 5% Foetal Calf Serum, glutamine (2 mM) (Ref.: GIBCO 25030-024), sodium pyruvate (1 mM) (Ref.: GIBCO 11360-039) and nonessential amino acids (1×) (Ref.: GIBCO 11140-035), on collagen coated flasks (Becton Dickinson 75 cm^2; Ref. 354523), to 50 to 80% confluence.
# The measurements of invasion of the HT1080 cells are carried out on a Becton Dickinson falcon HTS Fluoroblock Multiwell Insert System kit in 24-well plates (Ref.: 351158). These measurement chambers give the cells the conditions which make it possible to evaluate their invasive properties in vitro.
# The kit is composed of a plate combined with culture inserts containing a PET membrane pierced with 8 micron pores on which a uniform Matrigel Matrix (Becton Dickinson; Ref. 354230) layer is deposited.
# Matrigel is a soluble basal membrane extracted from the EHS (Engelbreth-Holm-Swarm) tumour which, by virtue of its composition, forms, upon solidifying, a structure equivalent to a basal membrane.
# The Matrigel layer blocks the pores of the membrane, thus blocking the migration of the noninvasive cells across the membrane. By contrast, the invasive (tumour or nontumour) cells will be capable of becoming detached and of invading the Matrigel layer before migrating across the membrane.
# The quantification of the cell migration is carried out by labelling with calcein AM (Molecular Probes C-3100). The fluorescent signal emitted is measured with the aid of a Perkin Elmer Wallac VICTOR 3 reader and may be directly correlated with the number of cells which have invaded the Matrigel gel. By comparing them with controls made in the same experiment as the products studied (response in the presence of 0% and 5% foetal calf serum), it is possible to determine a percentage inhibition of cell invasion in the presence of the products.
# heparanase = biological target: T1, heparanase (Homo sapiens, UniProt Q9Y251); test: Heparanase inhibition in an enzymatic system (degradation of fondaparinux, read out by anti-factor Xa activity); type: biochemical; details: mean±SD, done on two assays
# T1 sequence (Q9Y251 36-543): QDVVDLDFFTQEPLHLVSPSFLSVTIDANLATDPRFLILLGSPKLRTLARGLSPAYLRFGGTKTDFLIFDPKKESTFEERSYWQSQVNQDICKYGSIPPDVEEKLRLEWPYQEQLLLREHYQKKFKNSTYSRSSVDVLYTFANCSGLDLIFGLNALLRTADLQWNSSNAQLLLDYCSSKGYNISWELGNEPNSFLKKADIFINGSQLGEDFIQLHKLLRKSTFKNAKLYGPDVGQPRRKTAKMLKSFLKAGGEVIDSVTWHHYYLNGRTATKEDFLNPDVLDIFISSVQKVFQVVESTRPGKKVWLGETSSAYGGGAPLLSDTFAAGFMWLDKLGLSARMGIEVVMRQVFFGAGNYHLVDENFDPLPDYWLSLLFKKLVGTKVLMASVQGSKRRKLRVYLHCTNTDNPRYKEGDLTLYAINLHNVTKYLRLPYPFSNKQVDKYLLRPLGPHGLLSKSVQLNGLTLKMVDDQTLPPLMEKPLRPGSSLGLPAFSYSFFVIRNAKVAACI
# Description: The concentration of fondaparinux is determined by means of its anti-factor Xa activity.
# The heparanase is produced by Sanofi-Synthelabo (Labège, France).
# The reagents for assaying factor Xa are marketed by Chromogénix (Montpellier, France).
# Increasing concentrations of a compound according to the invention, an inhibitor of heparanases (varying dilutions: from 1 nM to 10 μM) are mixed at a fixed heparanase concentration (for each batch, preliminary experiments make it possible to determine the enzymatic activity which is sufficient for the degradation of 0.45 μg/ml of added fondaparinux). After 5 minutes at 37° C., the mixture is exposed to fondaparinux and left for 1 hour at 37° C. The reaction is stopped by heating at 95° C. for 5 minutes. The residual fondaparinux concentration is finally measured by adding factor Xa and its specific chromogenic substrate (Ref. S2222).
# The various mixtures are produced according to the following procedure:
# 50 μl of sodium acetate buffer (0.2 M, pH 4.2) are mixed with 50 μl of fondaparinux (0.45 μg/ml) and 59 μl of a heparanase solution. The mixture is incubated for 1 hour at 37° C. and then for 5 minutes at 95° C. […]
# The anti-factor Xa activity of fondaparinux is measured in the following manner: […]
# The optical density is read at 405 nm.
# A percentage inhibition is determined relative to control without inhibitor. […]
IC50 (heparanase),SMILES,inhibition of cell invasion (HT1080 tumour cells; 0.3 μM),inhibition of cell invasion (HT1080 tumour cells; 1 μM),"inhibition of cell invasion (HT1080 tumour cells; 10 μM, four independent determinations, mean±standard deviation)",effect on cell invasion as a function of dose (HT1080 tumour cells; HT1080 cells)
–,"CC(=O)N[C@H]1[C@@H](O[C@H]2[C@H](O)CNC[C@@H]2C(=O)O)O[C@H](COS(=O)(=O)O)[C@@H](O[C@@H]2O[C@@H](C(=O)O)[C@@H](O[C@H]3O[C@H](COS(=O)(=O)O)[C@@H](O[C@@H]4O[C@@H](C(=O)O)[C@@H](OS(=O)(=O)O)[C@H](O)[C@H]4OS(=O)(=O)O)[C@H](O)[C@H]3NC(C)=O)[C@H](O)[C@H]2OS(=O)(=O)O)[C@@H]1O.[Na+].[Na+].[Na+].[Na+].[Na+].[Na+].[Na+].[Na+] [compound No. 20, (2,4-di-O-sodium sulphonato-α-L-idopyranosyluronate of sodium)-(1-4)-(2-acetamido-2-deoxy-6-O-sodiumsulphonato-α-D-glucopyranosyl)-(1-4)-(2-O-sodiumsulphonato-α-L-idopyranosyluronate of sodium)-(1-4)-(2-acetamido-2-deoxy-6-O-sodiumsulphonato-α-D-glucopyranosyl)-(1-4)-(5-(hydroxy)-4-oxypiperidine-3-carboxylate of sodium (3S,4R,5R))]",26±3%,53±11%,40.3±8.3%,dose-dependent effect
11 ± 4 nM,"O=C(O)[C@H]1CNC[C@@H](O)[C@@H]1O[C@H]1O[C@H](COS(=O)(=O)O)[C@@H](O[C@@H]2O[C@@H](C(=O)O)[C@@H](O[C@H]3O[C@H](COS(=O)(=O)O)[C@@H](O[C@@H]4O[C@@H](C(=O)O)[C@@H](OS(=O)(=O)O)[C@H](O)[C@H]4OS(=O)(=O)O)[C@H](O)[C@H]3NS(=O)(=O)O)[C@H](O)[C@H]2OS(=O)(=O)O)[C@H](O)[C@H]1NS(=O)(=O)O [compound No. 27, (2,4-di-O-sodium sulphonato-α-L-idopyranosyluronate of sodium)-(1-4)-(2-N-sodiumsulphonato-2-deoxy-6-O-sodiumsulphonato-α-D-glucopyranosyl)-(1-4)-(2-O-sodiumsulphonato-α-L-idopyranosyluronate of sodium)-(1-4)-(2-N-sodiumsulphonato-2-deoxy-6-O-sodiumsulphonato-α-D-glucopyranosyl)-(1-4)-(5-(hydroxy)-4-oxypiperidine-3-carboxylate of sodium (3S,4R,5R))]",–,–,–,–

# From US20120065153A1, “AZASUGAR DERIVATIVES, HEPARANASE INHIBITORS, METHOD FOR PREPARING SAME, COMPOSITIONS CONTAINING SAME, USE THEREOF” (SANOFI-AVENTIS, priority 2004, published 2012)
